Data published in patent publication US4210754A, “Morpholino containing benzamides” (Hoffmann-La Roche Inc., priority 1978, dated 1980).

Legend:
monoamine oxidase (MAO) = test: MAO inhibiting activity in liver homogenates of rats after p.o. administration; assay type: in vivo; details: animals killed one hour after administration, MAO measured in liver homogenates, 60 min
Procedure: (§1) The MAO inhibiting activity of the compounds of formula I of the invention can be determined using standard methods. Thus, the compounds of formula I to be tested were administered p.o. to rats. One hour thereafter the animals were killed and the MAO inhibiting activity in the liver homogenates was measured according to the method described in Biochem. Pharmacol. 12 (1963) 1439-1441. The activity thus determined of representative compounds of the present invention and their toxicity can be seen from the ED50 values (μmol/kg.p.o. in rats) and LD50 values (mg/kg, p.o. in mice) listed in the Table which follows: […]

[1] = toxicity (LD50) p.o. in mice; details: mouse, in vivo, po
Procedure: as §1

[2] = toxicity (LD50) p.o. in rats; details: rat, in vivo, po, after 10 days

| SMILES | ED50 (MAO inhibiting activity) (monoamine oxidase (MAO)) [µmol/kg] | LD50 [1] [mg/kg] | LD50 at 240 h [2] [mg/kg] |
| --- | --- | --- | --- |
| O=C(NCCN1CCOCC1)c1ccc(Cl)cc1Cl [2,4-dichloro-N-(2-morpholinoethyl)-benzamide] | 13 | 1250 to 2500 |  |
| O=C(NCCN1CCOCC1)c1ccc(C(F)(F)F)cc1 [α,α,α-trifluoro-N-(2-morpholinoethyl)-p-toluamide] | 16 | 1000 to 2000 |  |
| CC(C)(C)c1ccc(C(=O)NCCN2CCOCC2)cc1 [p-t-butyl-N-(2-morpholinoethyl)-benzamide] | 16 | 1250 to 2500 |  |
| O=C(NCCN1CCOCC1)c1ccc(F)cc1 [p-fluoro-N-(2-morpholinoethyl)-benzamide] | 11 | 1250 to 2500 |  |
| O=C(NCCN1CCOCC1)c1ccc(Br)cc1 [p-bromo-N-(2-morpholinoethyl)-benzamide] | 6 | 1250 to 2500 |  |
| O=C(NCCN1CCOCC1)c1ccc(Cl)cc1 [p-chloro-N-(2-morpholinoethyl)-benzamide] | 5 |  | 707 ± 55 |
| O=C(NCCN1CCOCC1)c1ccc(I)cc1 [p-iodo-N-(2-morpholinoethyl)-benzamide] | 4 | 1250 to 2500 |  |
| O=C(NCCN1CCOCC1)c1ccc(Cl)cc1[N+](=O)[O-] [4-chloro-N-(2-morpholinoethyl)-2-nitrobenzamide] | 2 |  |  |
